The source of these data is ChEMBL document CHEMBL5370578, “Discovery of a potent, orally available tricyclic derivative as a novel BRD4 inhibitor for melanoma” (Bioorg Med Chem, 2023).

The structures appear in SMILES notation.

Series [1] in a line: Half life in Slc:ICR mouse at 0.5 mg/kg, iv measured for 4 to 8 hrs by LC/MS/MS analysis. Format: ADME, organism-based. Conditions: in vivo, time 4-8 hrs.
A short description of series [2]: Apparent permeability of the compound across apical side to basolateral side in human Caco-2 cells incubated for 2 hrs by LC-MS/MS analysis. (In general: Caco-2 monolayers are a common model of the intestinal barrier.)
Series [3] can be described thus: Total clearance in Slc:ICR mouse at 0.5 mg/kg, iv measured for 4 to 8 hrs by LC/MS/MS analysis. Format: ADME, organism-based. The following applies: in vivo, time 4-8 hrs.
Series [4] can be described thus: Stability in mouse liver microsomes assessed as intrinsic clearance measured per mg protein.
Series [5] in a line: AUC (0 to 24 hrs) in Slc:ICR mouse at 1 mg/kg, po measured for 8 to 24 hrs by LC/MS/MS analysis. Further details: dose 1 mg/kg, time upper 24 hrs, time lower 8 hrs, route po. Format: ADME, organism-based. The following applies: in vivo.
Series [6] can be described thus: Oral bioavailability in Slc:ICR mouse at 1 mg/kg measured for 8 to 24 hrs by LC/MS/MS analysis. Conditions: in vivo, time 8-24 hrs. Format: ADME, organism-based.
Series [7] in a line: Volume of distribution in Slc:ICR mouse at 0.5 mg/kg, iv measured for 4 to 8 hrs by LC/MS/MS analysis. Format: ADME, organism-based. Conditions: in vivo, time 4-8 hrs.
Series [8] addresses T1, Bromodomain-containing protein 4 (Homo sapiens, UniProt O60885). Briefly: Displacement of Biotin-tagged [Lys(5,8,12,16)Ac]H4(1 to 21) peptide from GST-tagged BRD4-BD1 (unknown origin) incubated for 3 hrs by HTRF based TR-FRET assay. Background: In TR-FRET formats the signal depends on donor and acceptor labels being close together.
Series [9] concerns the target T1, Bromodomain-containing protein 4. Briefly: Displacement of Biotin-tagged [Lys(5,8,12,16)Ac]H4(1 to 21) peptide from BRD4-BD2 (unknown origin) incubated for 3 hrs by HTRF based TR-FRET assay.
For series [10], the target named is Bromodomain-containing protein 2 (Homo sapiens, UniProt P25440). The series can be described thus: Displacement of Biotin-tagged [Lys(5,8,12,16)Ac]H4(1 to 21) peptide from GST-tagged BRD2-BD1 (unknown origin) incubated for 3 hrs by HTRF based TR-FRET assay.
In series [11] the target is Bromodomain-containing protein 3 (Homo sapiens, UniProt Q15059). The series can be described thus: Displacement of Biotin-tagged [Lys(5,8,12,16)Ac]H4(1 to 21) peptide from GST-tagged BRD3-BD1 (unknown origin) incubated for 3 hrs by HTRF based TR-FRET assay.
In series [12] the target is Bromodomain testis-specific protein (Homo sapiens, UniProt Q58F21). The series can be described thus: Displacement of Biotin-tagged [Lys(5,8,12,16)Ac]H4(1 to 21) peptide from GST-tagged BRDT-BD1 (unknown origin) incubated for 3 hrs by HTRF based TR-FRET assay.
The target in series [13] is T1, Bromodomain-containing protein 4. Briefly: Inhibition of NanoLuc-tagged full length BRD4 (unknown origin) transfected in HEK293 cells coexpressing histone H4-halo-tagged fusion vector preincubated overnight followed by substrate addition and measured after 10 mins by NanoBRET assay. Format: cell-based. (In general: BRET reads energy transfer from a luciferase to a nearby fluorophore.)

Series [14] is described as follows: Antiproliferative activity against human A375.S2 cells assessed as inhibition of cell growth incubated for 72 hrs by WST-1 assay. Conditions: A375-S2, 72 h. Format: functional, cell-based.
A short description of series [15]: Antitumor activity against human A375.S2 cells xenografted CAnN.Cg-Foxnlnu/CrlCrlj mouse model assessed as reduction in tumor growth at 60 mg/kg administered twice daily for 14 days relative to control. Format: functional. Set-up: scale not given: the % may be the effect or the level left. The following applies: time 14 day.
A short description of series [16]: Toxicity in CAnN.Cg-Foxnlnu/CrlCrlj mouse xenografted with human A375.S2 cells assessed as body weight loss at 30 to 60 mg/kg administered twice daily for 14 days. Format: organism-based. Conditions: in vivo, 336 h, dose 30-60 mg/kg, time 14 day.
Series [17] in a line: in vivo. The following applies: Slc:ICR, mouse, po, 1 mg/kg.
Series [18] in a line: Stability in human liver microsomes assessed as intrinsic clearance measured per mg protein.
Series [19] in a line: AUC (0 to 8 hrs) in Slc:ICR mouse at 1 mg/kg, po measured for 8 to 24 hrs by LC/MS/MS analysis. Format: ADME, organism-based. Further details: time lower 8 hrs, dose 1 mg/kg, time upper 24 hrs, route po. The following applies: in vivo.

Sequence of Bromodomain-containing protein 2 (P25440 whole entry): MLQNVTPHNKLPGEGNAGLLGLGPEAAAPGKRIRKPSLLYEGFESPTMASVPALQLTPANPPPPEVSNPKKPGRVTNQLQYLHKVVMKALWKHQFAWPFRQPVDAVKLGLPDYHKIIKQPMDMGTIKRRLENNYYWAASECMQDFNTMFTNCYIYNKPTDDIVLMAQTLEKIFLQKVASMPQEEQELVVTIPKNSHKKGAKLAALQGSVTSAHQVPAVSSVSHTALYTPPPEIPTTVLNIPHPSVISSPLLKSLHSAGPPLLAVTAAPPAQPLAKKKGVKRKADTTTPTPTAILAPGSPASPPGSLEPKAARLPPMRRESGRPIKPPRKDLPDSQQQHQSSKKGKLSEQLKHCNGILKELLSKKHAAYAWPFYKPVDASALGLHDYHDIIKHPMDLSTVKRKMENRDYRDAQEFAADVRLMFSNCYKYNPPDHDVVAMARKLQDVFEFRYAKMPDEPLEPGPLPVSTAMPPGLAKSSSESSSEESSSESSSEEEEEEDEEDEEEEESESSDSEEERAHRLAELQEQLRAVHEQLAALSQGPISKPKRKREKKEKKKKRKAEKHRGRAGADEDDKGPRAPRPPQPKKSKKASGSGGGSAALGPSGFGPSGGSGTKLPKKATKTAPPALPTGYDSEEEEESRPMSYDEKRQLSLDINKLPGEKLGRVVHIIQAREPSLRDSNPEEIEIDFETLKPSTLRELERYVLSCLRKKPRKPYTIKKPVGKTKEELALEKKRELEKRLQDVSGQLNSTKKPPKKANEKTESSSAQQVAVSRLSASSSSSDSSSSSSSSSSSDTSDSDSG
Sequence of Bromodomain-containing protein 3 (Q15059 whole entry): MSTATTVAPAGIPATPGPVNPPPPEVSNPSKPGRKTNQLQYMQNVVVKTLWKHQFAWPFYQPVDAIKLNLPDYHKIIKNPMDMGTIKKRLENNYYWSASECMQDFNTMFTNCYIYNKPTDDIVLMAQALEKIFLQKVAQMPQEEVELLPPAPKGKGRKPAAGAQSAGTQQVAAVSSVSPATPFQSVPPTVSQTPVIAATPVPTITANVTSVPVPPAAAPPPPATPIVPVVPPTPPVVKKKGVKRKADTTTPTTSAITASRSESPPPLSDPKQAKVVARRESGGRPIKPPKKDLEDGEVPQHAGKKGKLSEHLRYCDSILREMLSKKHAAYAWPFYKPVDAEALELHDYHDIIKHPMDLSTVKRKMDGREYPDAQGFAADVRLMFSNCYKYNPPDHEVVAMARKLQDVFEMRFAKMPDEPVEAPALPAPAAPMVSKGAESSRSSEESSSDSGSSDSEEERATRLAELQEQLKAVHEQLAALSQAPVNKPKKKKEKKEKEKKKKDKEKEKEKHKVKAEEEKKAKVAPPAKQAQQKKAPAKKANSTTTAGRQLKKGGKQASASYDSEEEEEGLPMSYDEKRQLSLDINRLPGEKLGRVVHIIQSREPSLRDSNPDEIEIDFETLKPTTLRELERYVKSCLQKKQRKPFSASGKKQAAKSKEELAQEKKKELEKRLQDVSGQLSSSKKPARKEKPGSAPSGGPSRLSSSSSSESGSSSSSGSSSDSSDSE

In general, half-life refers to the time needed for the level to fall by half in the phase considered. For orientation: Papp A→B means the apparent permeability from the apical to the basolateral side of a cell layer. As usually defined, the clearance is a measure of how efficiently the substance is removed, as volume per time. Broadly, the AUC(0-t) is the area under the concentration-time curve up to a stated or last time point. Broadly, the bioavailability is dose-corrected exposure relative to a reference, in per cent. Usually Vd stands for the apparent volume that relates the amount in the body to the concentration in plasma or blood. As usually defined, the IC50 is the concentration that inhibits the measured activity by half. In general, Cmax refers to the maximum level reached in the sampled fluid or tissue. For the compound `Cc1cc(-c2cc3c4c(c2)n(Cc2ccccc2)c(=O)n4CCO3)cn(C)c1=O`, the half-life in series [1] is 4.1 h. The Papp A→B at 2 h in [2] is 12 ×10⁻⁶ cm/s. The clearance in series [3] worked out at 3.3 mL/min. Moreover, the CLH in [4] was found to be 17 mL/min. This compound registered an exposure AUC(0-t) in series [5] of 2420 ng·h/mL. The bioavailability in series [6] is 49%. The compound also showed a Vd in series [7] of 1.18 L/kg. The IC50 in [8] came out at 15 nM; in series [9] it was 55 nM; in series [10] it was 19 nM; in series [11], 25 nM; in series [12] it was 68 nM; in [13], 81 nM. The IC50 in series [14] was 539 nM. The Activity in [15] was 41%; in series [16], “Non-Toxic”. In [17], this compound came in with a Cmax of 299 ng/mL.
For the compound `Cc1cc(-c2ccc3cnn(Cc4ccccc4)c3c2)cn(C)c1=O`, the CLH in series [18] was 43 mL/min; in [4] it was 42 mL/min. In addition, the IC50 in [8] is 61 nM.
Regarding `Cc1cc(-c2ccc3[nH]c(=O)n(Cc4ccccc4)c3c2)cn(C)c1=O`, the Papp A→B at 2 h in [2] was 5.9 ×10⁻⁶ cm/s. For the same compound, the CLH was 29 mL/min in series [18] and 15 mL/min in series [4]. Besides, in series [3], the clearance was 40 mL/min. In addition, the AUC(0-t) in series [19] was 178 ng·h/mL. The bioavailability in [6] stood at 70%. In series [8], this compound returned an IC50 of 32 nM. Besides, the highest level in [17] (Cmax) was 37 ng/mL.
In [8], `CCS(=O)(=O)c1cc(-c2cc(C)c(=O)n(C)c2)cc2c1[nH]c(=O)n2Cc1ccccc1` had an IC50 of 112 nM.
`CCS(=O)(=O)Cc1cc(-c2cc(C)c(=O)n(C)c2)cc2c1n(C)c(=O)n2Cc1ccccc1`: the CLH in series [18] was 14 mL/min; in series [4], 34 mL/min. Also, in [8], the IC50 is 4.8 nM.
With `Cc1cc(-c2ccc3c(c2)n(Cc2ccccc2)c(=O)n3C(C)C)cn(C)c1=O`, the Papp A→B at 2 h in series [2] came out at 14 ×10⁻⁶ cm/s. For the same compound, the CLH in series [18] came to 27 mL/min; in series [4], 38 mL/min. Also, the IC50 in series [8] worked out at 25 nM.
For the compound `CCS(=O)(=O)Cc1cc(-c2cc(C)c(=O)n(C)c2)cc2c1[nH]c(=O)n2Cc1ccccc1`, the Papp A→B at 2 h in [2] came to 0.02 ×10⁻⁶ cm/s. The CLH in series [18] and in [4] was 11 mL/min throughout. Further, the IC50 in series [8] was found to be 4.2 nM.
Take `Cc1cc(-c2ccc3c(c2)n(Cc2ccccc2)c(=O)n3CC(C)C)cn(C)c1=O`: the CLH was 352 mL/min in series [18] and 491 mL/min in series [4]. Besides, in series [8], the IC50 came out at 42 nM.
For `Cc1cc(-c2ccc3ccn(Cc4ccccc4)c3c2)cn(C)c1=O`, the IC50 in [8] worked out at 94 nM.
On the same count and under the same terms, then `Cc1cc(-c2ccc3c(c2)N(Cc2ccccc2)C(=O)CN3)cn(C)c1=O`, with 122 nM.
As for `CCS(=O)(=O)NCc1cc(-c2cc(C)c(=O)n(C)c2)cc2c1[nH]c(=O)n2Cc1ccccc1`, the Papp A→B at 2 h in [2] was found to be 0.11 ×10⁻⁶ cm/s. The CLH in [18] was 43 mL/min; in series [4] it was 66 mL/min. The half-inhibitory concentration (IC50) in series [8] was 12 nM.
Turning to `CC[S+]([O-])c1cc(-c2cc(C)c(=O)n(C)c2)cc2c1[nH]c(=O)n2Cc1ccccc1` (centres undefined), the IC50 in series [8] came out at 157 nM.
With `Cc1cc(-c2ccc3nnn(Cc4ccccc4)c3c2)cn(C)c1=O`, the CLH in [18] is 49 mL/min; in series [4] it was 23 mL/min. The 50% inhibitory concentration (IC50) in series [8] is 38 nM.
On to `CCS(=O)(=O)NCc1cc(-c2cc(C)c(=O)n(C)c2)cc2c1n(C)c(=O)n2Cc1ccccc1`, for which the Papp A→B at 2 h in [2] was determined as 0.03 ×10⁻⁶ cm/s. The CLH in [18] was 37 mL/min; in series [4], 53 mL/min. Further, the IC50 in series [8] is 39 nM.
For `CCS(=O)(=O)Nc1cc(-c2cc(C)c(=O)n(C)c2)cc2c1[nH]c(=O)n2Cc1ccccc1` the same measures were 0.05 ×10⁻⁶ cm/s, less than 9.6 mL/min, less than 9.6 mL/min and 19 nM.
Consider `Cc1cc(-c2ccc3c(c2)n(Cc2ccccc2)c(=O)n3C)cn(C)c1=O`, for which, in series [2], the Papp A→B at 2 h stood at 21 ×10⁻⁶ cm/s. Moreover, the CLH in series [18] turned out to be 25 mL/min; in series [4], 20 mL/min. The same compound had a concentration for half-maximal inhibition (IC50) in series [8] of 50 nM.
`COCCn1c(=O)n(Cc2ccccc2)c2cc(-c3cc(C)c(=O)n(C)c3)ccc21` yielded an IC50 in [8] of 45 nM.
On to `Cc1cc(-c2ccc3ncn(Cc4ccccc4)c3c2)cn(C)c1=O`, for which the CLH in [18] was 65 mL/min; in series [4], 36 mL/min. The compound also came in with a Cmax in series [17] of less than 1 ng/mL.
